“And” between values parts separate entries of the source, which are not always exact repeats. Identical values can stand only once. Toxic doses and inconclusive results are not listed. Cut-off read from the data, not from the text of the source: active = T/C of 150% or more; inactive = T/C below 125%.
System: L1210 leukemia ip in BDF1 mice, survival T/C
Test: NCI In Vivo Anticancer Drug Screen. Data for tumor model L1210 Leukemia (intraperitoneal) in B6D2F1 (BDF1) mice
Conditions: endpoint: mean survival time, higher = longer survival
Procedure, shortened: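 Ratio derived from survival: compound-dosed mice over vehicle-dosed mice, all bearing a transplantable tumor.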

[1] = dose: 100.0 mg/kg/injection, schedule: Q01DX009 (ip), vehicle: Klucel (hydroxypropylcellulose) (HPC)
[2] = dose: 100.0 mg/kg/injection, schedule: Q04DX003 (ip), vehicle: Klucel (hydroxypropylcellulose) (HPC)
[3] = dose: 200.0 mg/kg/injection, schedule: Q01DX009 (ip), vehicle: Klucel (hydroxypropylcellulose) (HPC)
[4] = dose: 200.0 mg/kg/injection, schedule: Q04DX003 (ip), vehicle: Klucel (hydroxypropylcellulose) (HPC)
[5] = dose: 400.0 mg/kg/injection, schedule: Q04DX003 (ip), vehicle: Klucel (hydroxypropylcellulose) (HPC)
[6] = dose: 100.0 mg/kg/injection, schedule: Q01DX009 (ip), vehicle: saline with Tween-80
[7] = dose: 100.0 mg/kg/injection, schedule: Q01DX001 (ip), vehicle: other
[8] = dose: 200.0 mg/kg/injection, schedule: Q01DX001 (ip), vehicle: other
[9] = dose: 400.0 mg/kg/injection, schedule: Q01DX001 (ip), vehicle: other
[10] = dose: 100.0 mg/kg/injection, schedule: Q01DX001 (ip), vehicle: saline
[11] = dose: 400.0 mg/kg/injection, schedule: Q01DX009 (ip), vehicle: Klucel (hydroxypropylcellulose) (HPC)
[12] = dose: 200.0 mg/kg/injection, schedule: Q01DX001 (ip), vehicle: saline
[13] = dose: 400.0 mg/kg/injection, schedule: Q01DX001 (ip), vehicle: saline

Measured: T/C

CCCCCCCCCCCCCCCCCCNC(=O)CCl
inactive: [1] 94 % of control | [2] 92 % of control | [3] 89 % of control | [4] 90 % of control | [5] 97 % of control

O=C(O)CCCCc1ccc(CCCCC(=O)O)cc1
inactive: dose: 50.0 mg/kg/injection, schedule: Q01DX009 (ip), vehicle: saline with Tween-80 96 % of control | [6] 106 % of control | [2] 97 % of control | [4] 104 % of control

N#CC[CH2][Sn]([CH2]CC#N)([CH2]CC#N)[CH2]CC#N
inactive: dose: 100.0 mg/kg/injection, schedule: Q04DX002 (ip), vehicle: saline with Tween-80 100 % of control | dose: 200.0 mg/kg/injection, schedule: Q04DX002 (ip), vehicle: saline with Tween-80 96 % of control | dose: 400.0 mg/kg/injection, schedule: Q04DX002 (ip), vehicle: saline with Tween-80 96 % of control

CCCCNS(=O)(=O)c1n[nH]c(=O)[nH]c1=O
inactive: [7] 104 % of control | [8] 101 % of control | [9] 93 % of control

CCO/N=C1\C(C)(C)C(C)(C)C(C)(C)C1(C)SS(=O)(=O)O (stereo not drawn)
inactive: dose: 75.0 mg/kg/injection, schedule: Q04DX002 (ip), vehicle: saline 101 % of control | dose: 150.0 mg/kg/injection, schedule: Q04DX002 (ip), vehicle: saline 96 % of control | dose: 300.0 mg/kg/injection, schedule: Q04DX002 (ip), vehicle: saline 93 % of control

COc1c(C(=O)Nc2ccc(C3=NCCN3)cc2)cccc1C(=O)Nc1ccc(C2=NCCN2)cc1
inactive: dose: 15.0 mg/kg/injection, schedule: Q01DX Z (ip), vehicle: saline 95 % of control | dose: 30.0 mg/kg/injection, schedule: Q01DX Z (ip), vehicle: saline 101 % of control

O=C(O)CCC1C2CC(C1C(=O)O)C1C3CCC(C3)C21 (stereo not drawn)
inactive: [2] 100 % of control | [4] 95 % of control | [5] 95 % of control

Cc1ccc2c(n1)Nc1nc(N)[nH]c(=O)c1S2
inactive: dose: 12.5 mg/kg/injection, schedule: Q04DX003 (ip), vehicle: carboxymethylcellulose (CMC) 97 % of control | dose: 25.0 mg/kg/injection, schedule: Q04DX003 (ip), vehicle: carboxymethylcellulose (CMC) 97 % of control

O=NN(CCCl)C(=O)NC1CCCC1
active: dose: 25.0 mg/kg/injection, schedule: Q01DX001 (ip), vehicle: saline 162 % of control | dose: 30.0 mg/kg/injection, schedule: Q01DX001 (ip), vehicle: saline 222 % of control | dose: 44.0 mg/kg/injection, schedule: Q01DX001 (ip), vehicle: saline 302 % of control | dose: 50.0 mg/kg/injection, schedule: Q01DX001 (ip), vehicle: saline 328 % of control | dose: 67.0 mg/kg/injection, schedule: Q01DX001 (ip), vehicle: saline 278 % of control | dose: 93.0 mg/kg/injection, schedule: Q01DX001 (ip), vehicle: saline 243 % of control | [10] 224 % of control and 333 % of control | dose: 150.0 mg/kg/injection, schedule: Q01DX001 (ip), vehicle: saline 295 % of control | dose: 187.0 mg/kg/injection, schedule: Q01DX001 (ip), vehicle: saline 197 % of control | dose: 375.0 mg/kg/injection, schedule: Q01DX001 (ip), vehicle: saline 283 % of control | dose: 500.0 mg/kg/injection, schedule: Q01DX001 (ip), vehicle: saline 327 % of control
inactive: dose: 3.0 mg/kg/injection, schedule: Q01DX001 (ip), vehicle: saline 108 % of control | dose: 6.0 mg/kg/injection, schedule: Q01DX001 (ip), vehicle: saline 108 % of control | dose: 12.0 mg/kg/injection, schedule: Q01DX001 (ip), vehicle: saline 112 % of control | dose: 18.0 mg/kg/injection, schedule: Q01DX001 (ip), vehicle: saline 118 % of control

O=C1OC(=O)c2ccc(SCC(O)CCl)c3cccc1c23 (stereo not drawn)
inactive: dose: 25.0 mg/kg/injection, schedule: Q01DX009 (ip), vehicle: other 98 % of control | dose: 50.0 mg/kg/injection, schedule: Q01DX009 (ip), vehicle: other 93 % of control | dose: 100.0 mg/kg/injection, schedule: Q01DX009 (ip), vehicle: other 93 % of control and 109 % of control

CC1CN1CO (stereo not drawn)
inactive: dose: 75.0 mg/kg/injection, schedule: Q01DX001 (ip), vehicle: saline 109 % of control

CN(C)C(=S)SCNC(=S)NCSC(=S)N(C)C
inactive: [2] 106 % of control | [4] 96 % of control | [5] 98 % of control

Cc1nc(N)nc(N)c1[N+](=O)[O-]
inactive: dose: 65.0 mg/kg/injection, schedule: Q01DX Z (oral), vehicle: methylcellulose (MC) 105 % of control | dose: 125.0 mg/kg/injection, schedule: Q01DX Z (oral), vehicle: methylcellulose (MC) 100 % of control | dose: 250.0 mg/kg/injection, schedule: Q01DX Z (oral), vehicle: methylcellulose (MC) 100 % of control

COc1cc([N+](=O)[O-])ccc1NC(=O)Nc1c(C)n(C)n(-c2ccccc2)c1=O
inactive: [1] 97 % of control | [3] 93 % of control | [11] 93 % of control

C=Cc1ccc(O)cc1
inactive: [10] 103 % of control | [12] 106 % of control | [13] 98 % of control

O=C(NCc1ccc([N+](=O)[O-])cc1)OCc1ccccc1
inactive: [1] 103 % of control | [2] 102 % of control | [3] 102 % of control | [4] 104 % of control | [11] 94 % of control | [5] 96 % of control

CCS(=O)(=O)/C=C/c1cccnc1
inactive: dose: 100.0 mg/kg/injection, schedule: Q04DX002 (ip), vehicle: saline 96 % of control | dose: 200.0 mg/kg/injection, schedule: Q04DX002 (ip), vehicle: saline 100 % of control | dose: 400.0 mg/kg/injection, schedule: Q04DX002 (ip), vehicle: saline 107 % of control

O=C(C[n+]1cccc(C(=O)Nc2ccccc2)c1)Nc1ccc(Cl)cc1
inactive: dose: 50.0 mg/kg/injection, schedule: Q04DX003 (ip), vehicle: saline 98 % of control | [10] 96 % of control | dose: 100.0 mg/kg/injection, schedule: Q04DX003 (ip), vehicle: saline 102 % of control | [12] 89 % of control | dose: 200.0 mg/kg/injection, schedule: Q04DX003 (ip), vehicle: saline 98 % of control

COc1cc(OC)c(NC(=O)c2ccc([N+](=O)[O-])s2)cc1Cl
inactive: dose: 50.0 mg/kg/injection, schedule: Q01DX005 (ip), vehicle: saline 94 % of control | dose: 100.0 mg/kg/injection, schedule: Q01DX005 (ip), vehicle: saline 94 % of control | dose: 200.0 mg/kg/injection, schedule: Q01DX005 (ip), vehicle: saline 94 % of control

OCn1c2ccccc2c2ccccc21
inactive: [7] 98 % of control | dose: 100.0 mg/kg/injection, schedule: Q04DX002 (ip), vehicle: Klucel (hydroxypropylcellulose) (HPC) 113 % of control | [8] 92 % of control | dose: 200.0 mg/kg/injection, schedule: Q04DX002 (ip), vehicle: Klucel (hydroxypropylcellulose) (HPC) 94 % of control | [9] 98 % of control | dose: 400.0 mg/kg/injection, schedule: Q04DX002 (ip), vehicle: Klucel (hydroxypropylcellulose) (HPC) 113 % of control

COC(=O)Nc1cccc(C)c1C
inactive: dose: 100.0 mg/kg/injection, schedule: Q04DX003 (ip), vehicle: other 103 % of control | dose: 200.0 mg/kg/injection, schedule: Q04DX003 (ip), vehicle: other 102 % of control | dose: 400.0 mg/kg/injection, schedule: Q04DX003 (ip), vehicle: other 108 % of control

CC1(C)NCC(=O)N1C(Cc1ccccc1)C(=O)O (stereo not drawn)
inactive: [10] 100 % of control | [12] 97 % of control | [13] 100 % of control

CCCCCC/S(C)=N\S(=O)(=O)c1ccc(Br)cc1 (stereo not drawn)
inactive: dose: 50.0 mg/kg/injection, schedule: Q01DX001 (ip), vehicle: carboxymethylcellulose (CMC) 100 % of control | dose: 100.0 mg/kg/injection, schedule: Q01DX001 (ip), vehicle: carboxymethylcellulose (CMC) 103 % of control | dose: 200.0 mg/kg/injection, schedule: Q01DX001 (ip), vehicle: carboxymethylcellulose (CMC) 97 % of control | dose: 400.0 mg/kg/injection, schedule: Q01DX001 (ip), vehicle: carboxymethylcellulose (CMC) 114 % of control

C=CCc1cc(OC)c(OC)c(OC)c1
inactive: [6] 104 % of control | dose: 200.0 mg/kg/injection, schedule: Q01DX009 (ip), vehicle: saline with Tween-80 101 % of control | dose: 400.0 mg/kg/injection, schedule: Q01DX009 (ip), vehicle: saline with Tween-80 101 % of control

CC(C#N)(/C=C/c1ccccc1)Nc1ccccc1N (stereo not drawn)
inactive: [1] 95 % of control | [2] 94 % of control | [3] 95 % of control | [4] 98 % of control | [11] 96 % of control | [5] 93 % of control

Source: PubChem BioAssay AID248 (DTP/NCI, 2004)
